Literature values in patent US9376461B2, “Non-enzymatic synthesis of O-acetyl-ADP-ribose and analogues thereof” (GlaxoSmithKline LLC, priority 2011, dated 2016).

System: starfish oocyte maturation
Details: infusion (microinjection) of OAADPR, presumably as the mixture of 2′ and 3′ isomers

## 2′- and 3′-O-Acetyl-ADP-ribose [OAADPR]
  effect on starfish oocyte maturation: delayed or halted
